These results are taken from ChEMBL document CHEMBL4477252, “Optimization of microtubule affinity regulating kinase (MARK) inhibitors with improved physical properties” (Bioorg Med Chem Lett, 2016).

The term IC50 denotes the concentration at which inhibition is half-maximal.

One assay concerns the target T1, Ephrin type-A receptor 8 (Homo sapiens, UniProt P29322).
T1 sequence (P29322 whole entry): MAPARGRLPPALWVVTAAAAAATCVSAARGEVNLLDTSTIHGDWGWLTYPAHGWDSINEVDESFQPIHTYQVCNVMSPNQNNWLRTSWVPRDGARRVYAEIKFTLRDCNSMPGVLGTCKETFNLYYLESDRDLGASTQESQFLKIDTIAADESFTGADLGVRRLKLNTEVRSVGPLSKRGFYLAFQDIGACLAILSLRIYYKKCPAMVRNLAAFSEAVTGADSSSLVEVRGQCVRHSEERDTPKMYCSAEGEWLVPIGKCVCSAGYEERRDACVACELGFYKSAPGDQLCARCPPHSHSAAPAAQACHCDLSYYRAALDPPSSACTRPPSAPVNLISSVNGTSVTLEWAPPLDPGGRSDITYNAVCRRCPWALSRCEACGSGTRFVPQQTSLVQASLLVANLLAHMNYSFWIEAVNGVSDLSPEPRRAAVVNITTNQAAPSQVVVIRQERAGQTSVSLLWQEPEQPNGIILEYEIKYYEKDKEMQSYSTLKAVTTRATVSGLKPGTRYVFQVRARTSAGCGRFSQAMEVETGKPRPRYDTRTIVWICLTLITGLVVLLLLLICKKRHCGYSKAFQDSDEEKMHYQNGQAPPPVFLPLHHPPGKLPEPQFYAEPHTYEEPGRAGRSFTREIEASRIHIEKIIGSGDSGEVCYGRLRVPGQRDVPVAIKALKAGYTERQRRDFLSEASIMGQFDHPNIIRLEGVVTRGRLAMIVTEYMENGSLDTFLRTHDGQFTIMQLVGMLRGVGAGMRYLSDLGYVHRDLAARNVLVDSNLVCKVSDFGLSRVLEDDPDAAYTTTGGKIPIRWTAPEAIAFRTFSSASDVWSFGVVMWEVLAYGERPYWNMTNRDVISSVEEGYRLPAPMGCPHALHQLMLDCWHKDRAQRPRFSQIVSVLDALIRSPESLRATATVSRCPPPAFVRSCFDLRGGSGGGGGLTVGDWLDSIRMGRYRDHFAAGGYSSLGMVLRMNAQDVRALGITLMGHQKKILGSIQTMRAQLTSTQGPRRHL
Briefly: Inhibition of recombinant human GST-tagged cytoplasmic EPHA8 expressed in baculovirus expression system by Z'-LYTE assay.

The target of assay [1] is T2, Protein kinase C zeta type (Homo sapiens, UniProt Q05513).
T2 sequence (Q05513 whole entry): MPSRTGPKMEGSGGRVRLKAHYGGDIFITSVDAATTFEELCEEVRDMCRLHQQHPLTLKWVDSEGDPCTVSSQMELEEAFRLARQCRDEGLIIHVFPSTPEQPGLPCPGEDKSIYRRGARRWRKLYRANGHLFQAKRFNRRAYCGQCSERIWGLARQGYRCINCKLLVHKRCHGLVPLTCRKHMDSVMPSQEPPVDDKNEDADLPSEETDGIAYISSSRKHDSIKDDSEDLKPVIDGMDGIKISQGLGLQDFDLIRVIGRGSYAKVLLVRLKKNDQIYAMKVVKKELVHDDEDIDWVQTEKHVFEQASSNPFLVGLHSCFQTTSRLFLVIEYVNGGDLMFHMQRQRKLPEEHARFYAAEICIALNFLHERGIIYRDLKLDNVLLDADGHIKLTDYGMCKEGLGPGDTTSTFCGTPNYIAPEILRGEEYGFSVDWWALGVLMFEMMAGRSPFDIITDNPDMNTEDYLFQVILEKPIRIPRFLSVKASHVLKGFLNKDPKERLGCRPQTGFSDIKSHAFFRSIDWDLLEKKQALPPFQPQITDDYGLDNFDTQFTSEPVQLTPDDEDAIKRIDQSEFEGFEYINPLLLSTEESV
The assay is described as follows: Inhibition of full-length recombinant human PRKCZ expressed in baculovirus expression system by Z'-LYTE assay.

Assay [2] deals with T3, Protein kinase C iota type (Homo sapiens, UniProt P41743).
T3 sequence (P41743 whole entry): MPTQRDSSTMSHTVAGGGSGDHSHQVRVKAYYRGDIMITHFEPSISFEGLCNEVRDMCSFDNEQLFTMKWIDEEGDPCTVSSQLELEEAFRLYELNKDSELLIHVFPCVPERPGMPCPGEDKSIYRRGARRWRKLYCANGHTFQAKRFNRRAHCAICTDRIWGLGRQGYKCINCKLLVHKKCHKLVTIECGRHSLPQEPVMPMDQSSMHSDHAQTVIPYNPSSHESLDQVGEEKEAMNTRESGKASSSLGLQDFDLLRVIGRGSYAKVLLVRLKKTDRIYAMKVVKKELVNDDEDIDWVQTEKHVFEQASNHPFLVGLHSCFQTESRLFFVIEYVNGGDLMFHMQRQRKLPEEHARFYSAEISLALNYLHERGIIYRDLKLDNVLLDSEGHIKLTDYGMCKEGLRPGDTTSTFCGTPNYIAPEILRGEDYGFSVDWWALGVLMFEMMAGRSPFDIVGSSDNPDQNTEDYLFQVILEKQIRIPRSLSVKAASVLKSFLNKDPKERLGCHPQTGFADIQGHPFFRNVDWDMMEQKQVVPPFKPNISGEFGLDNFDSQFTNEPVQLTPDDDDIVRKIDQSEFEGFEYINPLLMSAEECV
The assay is described as follows: Inhibition of full-length recombinant human His-tagged PRKCI expressed in baculovirus expression system by Z'-LYTE assay.

Assay [3] has as its target PI3-kinase p110-delta/p85-alpha (Homo sapiens, UniProt O00329). The assay is described as follows: Inhibition of full-length recombinant human His-tagged PIK3P110D/P85A expressed in baculovirus expression system by Adapta assay.
Assay [4] has as its target RAC-alpha serine/threonine-protein kinase (Homo sapiens, UniProt P31749). The assay is described as follows: Inhibition of full-length recombinant human His-tagged AKT1-alpha expressed in baculovirus expression system by Z'-LYTE assay.

Structures are written as SMILES. Bounds are passed on as bounds.

PI3-kinase p110-delta/p85-alpha, sequence (P27986 whole entry): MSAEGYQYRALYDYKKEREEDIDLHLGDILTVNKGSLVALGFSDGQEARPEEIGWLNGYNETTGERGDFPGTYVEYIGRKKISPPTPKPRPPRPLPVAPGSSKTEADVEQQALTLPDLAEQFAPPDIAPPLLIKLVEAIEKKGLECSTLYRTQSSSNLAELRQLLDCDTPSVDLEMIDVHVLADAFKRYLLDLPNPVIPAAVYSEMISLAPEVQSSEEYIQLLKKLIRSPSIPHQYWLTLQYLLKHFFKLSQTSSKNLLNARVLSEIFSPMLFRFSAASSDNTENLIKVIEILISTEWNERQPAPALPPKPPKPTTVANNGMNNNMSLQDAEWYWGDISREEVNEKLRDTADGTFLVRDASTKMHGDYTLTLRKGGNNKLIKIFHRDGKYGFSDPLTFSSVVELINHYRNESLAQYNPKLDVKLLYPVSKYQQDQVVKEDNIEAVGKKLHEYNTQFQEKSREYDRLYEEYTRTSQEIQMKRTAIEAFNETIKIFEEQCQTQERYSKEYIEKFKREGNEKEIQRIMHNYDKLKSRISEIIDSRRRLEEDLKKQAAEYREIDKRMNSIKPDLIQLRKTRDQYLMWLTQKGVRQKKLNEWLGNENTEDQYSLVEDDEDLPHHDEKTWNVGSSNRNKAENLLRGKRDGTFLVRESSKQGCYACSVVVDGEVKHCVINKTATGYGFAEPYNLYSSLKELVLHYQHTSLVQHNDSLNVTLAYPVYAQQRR
PI3-kinase p110-delta/p85-alpha, sequence (O00329 whole entry): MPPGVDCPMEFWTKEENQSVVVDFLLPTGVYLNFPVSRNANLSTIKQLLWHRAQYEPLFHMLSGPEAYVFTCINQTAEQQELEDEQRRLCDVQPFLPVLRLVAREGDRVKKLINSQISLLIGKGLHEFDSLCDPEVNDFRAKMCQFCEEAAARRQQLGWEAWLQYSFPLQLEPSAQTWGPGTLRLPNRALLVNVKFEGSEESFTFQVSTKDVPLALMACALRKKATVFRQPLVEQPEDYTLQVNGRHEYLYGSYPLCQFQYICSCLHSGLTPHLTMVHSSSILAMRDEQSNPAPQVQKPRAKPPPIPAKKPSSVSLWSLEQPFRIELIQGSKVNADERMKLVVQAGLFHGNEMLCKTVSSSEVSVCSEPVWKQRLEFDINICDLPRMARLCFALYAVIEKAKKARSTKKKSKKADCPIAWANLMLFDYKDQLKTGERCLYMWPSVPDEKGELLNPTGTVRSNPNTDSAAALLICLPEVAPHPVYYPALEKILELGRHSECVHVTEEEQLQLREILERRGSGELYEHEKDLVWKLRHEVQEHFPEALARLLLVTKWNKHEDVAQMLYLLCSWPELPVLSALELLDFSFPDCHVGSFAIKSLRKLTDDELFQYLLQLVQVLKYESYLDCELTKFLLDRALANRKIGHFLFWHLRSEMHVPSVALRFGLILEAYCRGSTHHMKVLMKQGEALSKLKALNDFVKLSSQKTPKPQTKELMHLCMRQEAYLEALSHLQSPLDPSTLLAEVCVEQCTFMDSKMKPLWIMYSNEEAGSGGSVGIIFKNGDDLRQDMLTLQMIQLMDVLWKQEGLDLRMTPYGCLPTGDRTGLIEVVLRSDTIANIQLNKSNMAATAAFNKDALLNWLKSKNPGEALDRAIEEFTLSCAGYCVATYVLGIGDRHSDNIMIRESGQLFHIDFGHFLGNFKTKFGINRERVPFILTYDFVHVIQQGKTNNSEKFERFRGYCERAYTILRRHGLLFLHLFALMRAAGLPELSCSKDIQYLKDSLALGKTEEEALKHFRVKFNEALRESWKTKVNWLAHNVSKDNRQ
RAC-alpha serine/threonine-protein kinase, sequence (P31749 whole entry): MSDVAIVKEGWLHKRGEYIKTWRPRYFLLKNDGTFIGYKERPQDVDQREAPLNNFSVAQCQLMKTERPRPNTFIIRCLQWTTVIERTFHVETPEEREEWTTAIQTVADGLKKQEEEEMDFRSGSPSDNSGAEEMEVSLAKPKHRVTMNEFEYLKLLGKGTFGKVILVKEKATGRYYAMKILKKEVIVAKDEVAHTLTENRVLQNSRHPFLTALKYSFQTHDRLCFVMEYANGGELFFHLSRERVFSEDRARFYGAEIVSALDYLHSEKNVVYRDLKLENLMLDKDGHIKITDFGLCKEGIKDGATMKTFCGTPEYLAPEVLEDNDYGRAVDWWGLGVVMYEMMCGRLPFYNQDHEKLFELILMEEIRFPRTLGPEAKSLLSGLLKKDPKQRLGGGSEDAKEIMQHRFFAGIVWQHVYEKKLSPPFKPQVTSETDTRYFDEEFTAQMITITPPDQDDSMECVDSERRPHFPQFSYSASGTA

For `Cn1cc(-c2cnc3c(-c4csc(C(=O)NCC(F)(F)F)c4)cnn3c2)cn1`, the IC50 on Ephrin type-A receptor 8 was 0.029 µM; in assay [1] it was 1.8 µM; in assay [2], 6.7 µM; in assay [3] it was 1.5 µM; in assay [4] it was more than 100 µM.
For `Cc1sc(C(=O)N[C@@H]2[C@H](N)CCCC2(F)F)cc1-c1cnn2cc(Cl)cnc12`, in that order: 16 µM, 1.1 µM, 0.72 µM, more than 100 µM and 0.87 µM.
For `O=C(NCC(F)(F)F)c1cc(-c2cnn3cc(-c4ccc(OCCN5CCCCC5)cc4)cnc23)cs1` the same measures were 0.021 µM, 1.9 µM, 1.5 µM, 55 µM and 24 µM.
On to `Cn1cc(-c2cnc3c(-c4csc(C(=O)N[C@@H]5CCCC[C@@H]5N)c4)cnn3c2)cn1` (racemic), for which the IC50 came to 0.0029 µM at Ephrin type-A receptor 8; 0.04 µM in assay [1]; 0.037 µM in assay [2]; 3.3 µM in assay [3]; 0.08 µM in assay [4].
